# Patent publication US20230349008A1, “PAPER-BASED SAMPLE TESTING DEVICES AND METHODS THEREOF” (CORNELL UNIVERSITY, priority 2020, published 2023)
# Legend:
# E. coli ATCC-25922 [1] = test: On-chip paper-based antimicrobial susceptibility testing (AST), resazurin colorimetric readout; format: cell-based, Escherichia coli; conditions: eight test zones: seven antibiotic concentrations plus no-antibiotic control; overnight 37° C.; 5×10^5 CFU/mL; hue threshold
# Description: (§1) To functionalize the chips for AST, antibiotics and the growth-sensitive dye resazurin were pre-dried on the chip to enable testing with a single sample addition step. Antibiotics used consisted of ampicillin, meropenem, gentamicin, and ciprofloxacin (all sourced from MilliporeSigma). The growth-sensitive dye resazurin (PrestoBlue, Thermo Fisher) is a redox indicator that is reduced by metabolically active cells into resorufin, leading to significant colorimetric and fluorescent changes which provide a visual indication of bacterial growth as disclosed in Guerin, et al., “Application of resazurin for estimating abundance of contaminant-degrading micro-organisms,” Lett. Appl. […] Using a spectrophotometer (V-1200, VWR), the OD625 nm absorbance corresponding to a 0.5 McFarland standard was verified to be in the range of 0.08-0.13 22. […] To quantitatively analyze color change in the test zones following incubation, test chips were imaged using a smartphone and analyzed in MATLAB (MathWorks). Images were analyzed in the hue, saturation, value (HSV) color-space which we determined to be less sensitive to lighting conditions compared to the red, blue, green (RGB) color-space. For each test zone, the average hue value in a 160-pixel diameter circular region was calculated and a threshold was used to differentiate between zones with reduced (growth) and unreduced (no growth) resazurin. […]
# E. coli BAA-2452 [2] = test: as above; format: cell-based, Escherichia coli; conditions: eight test zones: seven antibiotic concentrations plus no-antibiotic control; overnight 37° C.; 5×10^5 CFU/mL; hue threshold
# Description: as §1
# E. coli BAA-2452 [3] = conditions: vendor MIC interpretation; cited from earlier work
# E. coli ATCC-25922 [4] = conditions: vendor MIC interpretation; cited from earlier work
compound,measurement,setting,value
CC1(C)S[C@@H]2[C@H](NC(=O)[C@H](N)c3ccccc3)C(=O)N2[C@H]1C(=O)O [ampicillin],"number of positive test zones (reduced resazurin, uninhibited growth)",E. coli ATCC-25922 [1],no-antibiotic control positive only
same,"number of positive test zones (reduced resazurin, uninhibited growth)",E. coli BAA-2452 [2],six
same,susceptibility category via off-chip AST,E. coli BAA-2452 [3],resistant
same,susceptibility category via off-chip AST,E. coli ATCC-25922 [4],susceptible
